In PMC11571015, “Hybrids of Membrane-Translocating Antimicrobial Peptides Show Enhanced Activity through Membrane Permeabilization” (ACS Medicinal Chemistry Letters, 2024):
≈ marks a conversion by molar mass, not a printed value.

How the values were obtained:
E. coli = assay type: cell-based, E. coli (Top10 Strain); conditions: median MIC; microbroth dilution, 1:2 serial dilution 18.2 to 1.8x10-2 μM, 4 × 10^6 CFU/mL, 1 h 37°C in wash buffer pH 7.4, then TSB overnight (18-24 h), OD600; triplicate per plate; mixture: each peptide at the reported concentration
Method: (§1) Supplemental Information for Trevellin et al.
(§2) Peptide design and preparation […]
(§3) synthesized by GenScript (Piscataway, NJ) at >95% purity determined by HPLC and dissolved in DI water. Concentrations were measured by triplicate tryptophan absorbance readings at 280 nm (ε=5700 M–1cm–1, l=1 cm) using a ThermoScientific NanoDrop 2000 (Waltham, MA). Buforin II (BF2) included an F10W mutation used in many previous studies1-5 to allow for concentration measurements.
(§4) Bacteria included E. coli (Top10 Strain, Invitrogen/ThermoFisher) containing a plasmid for ampicillin resistance (Novagen) and/or B. subtilis (ATCC #6051). Bacterial growth was performed in TSB (trypticase soy broth) prepared at 3% w/v (30 g of media in 1 L) from BD Difco unless otherwise noted. Overnight cultures were picked from petri dishes or frozen stock and grown for 14-16 hours at 37 °C in TSB with shaking. E. coli overnight cultures were incubated with 25 μg/mL ampicillin. The overnight cultures were then diluted 1:100 in 25 mL TSB and incubated at 37 °C with shaking for 2.5 h. The culture was pelleted via centrifugation at 1500×g for 10 min at room temperature and resuspended in sterile cold wash buffer (10 mM sodium phosphate buffer and 10 mM sodium chloride, pH 7.4). These resuspended bacteria were then used for radial diffusion, microbroth dilution, and propidium iodide assays. […]
(§5) Microbroth dilution assay
(§6) Microbroth dilution assays were used to determine the minimum inhibitory concentration (MIC) of each peptide for E. coli and B. subtilis (ATCC #6051). A 1:2 serial dilution was prepared for a peptide across the top row of a 96-well plate. 100 μL of bacterial suspension (4 × 10^6 CFU/mL, diluted in sterile wash buffer, 10 mM sodium phosphate buffer and 10 mM sodium chloride, pH 7.4) and 10 μL of peptide were mixed to each well in subsequent rows of the plate. The 11 effective peptide concentrations ranged from 18.2 μM to 1.8x10-2 μM, with DI water used as a control, and each concentration was tested in triplicate per plate. After the bacteria and peptide mixtures were incubated in plates at 37°C for 1 hour, 100 μL of 6% w/v TSB was added to each well. For wells containing E. coli, ampicillin was added at a final concentration of 25 µg/ml. The plate was then incubated overnight (18-24 h) at 37°C. After incubation, OD600nm were measured using the SpectraMax M3 microplate reader (Molecular Devices). […]
(§7) relative permeability = F5/F0
(§8) Each peptide was tested with bacteria grown from at least three distinct overnight […]
(§9) The MTS assay is a colorimetric viability assay for mammalian cells. HEK 293 cells (ATCC CRL-1573) were grown in complete growth medium (EMEM, 10% fetal bovine serum, 1% penicillin-streptomycin). Cells were cultured in a T-75 maintenance flask, fed with fresh media every 1-2 days, and passaged approximately every 5-7 days once cells reached 70-90% confluence. During passaging, HEK 293 cells were plated in a 96-well plate at 20,000 cells/well and incubated for 4-6 hours (37 °C, 95% humidity, 5% CO2). Each column of cells (8 replicates) was then incubated overnight with 18.2 µM peptide or a control. After incubation, media was aspirated and refreshed for each well, […]

B. subtilis = assay type: cell-based, B. subtilis (ATCC #6051); conditions: 1 h, pH 7.4
Method: as §1, §2, §3, §4, §5, §6, §7, §8, §9

Row | SMILES | MIC against E. coli (E. coli) [µM] | MIC against B. subtilis (B. subtilis) [µM]
1 | CC[C@H](C)[C@H](NC(=O)[C@H](CCCNC(=N)N)NC(=O)[C@@H](NC(=O)[C@H](CCCCN)NC(=O)[C@H](CCCCN)NC(=O)[C@H](CC(N)=O)NC(=O)[C@H](CC(=O)O)NC(=O)[C@H](CCCNC(=N)N)NC(=O)[C@H](C)NC(=O)[C@@H]1CCCN1C(=O)[C@H](CCCCN)NC(=O)[C@H](CCCNC(=N)N)NC(=O)[C@H](CC(C)C)NC(=O)[C@H](CC(C)C)NC(=O)[C@H](CCCNC(=N)N)NC(=O)[C@H](Cc1c[nH]cn1)NC(=O)[C@@H](NC(=O)[C@H](CCCNC(=N)N)NC(=O)CNC(=O)[C@@H](NC(=O)[C@@H]1CCCN1C(=O)[C@H](Cc1c[nH]c2ccccc12)NC(=O)[C@H](CCC(N)=O)NC(=O)[C@H](CC(C)C)NC(=O)CNC(=O)[C@H](C)NC(=O)[C@H](CCCNC(=N)N)NC(=O)[C@H](CO)NC(=O)[C@H](CO)NC(=O)[C@H](CCCNC(=N)N)NC(=O)[C@@H](N)[C@@H](C)O)C(C)C)C(C)C)[C@@H](C)O)C(=O)N[C@@H](Cc1c[nH]c2ccccc12)C(=O)N1CCC[C@H]1C(=O)N[C@@H](CCCNC(=N)N)C(=O)N[C@@H](Cc1c[nH]cn1)C(=O)N[C@@H](CC(C)C)C(=O)N[C@@H](CCC(N)=O)C(=O)N[C@@H](CC(C)C)C(=O)N[C@@H](C)C(=O)N[C@H](C(=O)N[C@@H](CCCNC(=N)N)C(=O)N[C@@H](CC(N)=O)C(=O)O)C(C)C [BF2-P-DesHDAP1 (BPD)] | 1.1 (≈ 5.53 µg/mL) | 4.6 (≈ 23.1 µg/mL)
2 | CC[C@H](C)[C@H](NC(=O)[C@H](CCCNC(=N)N)NC(=O)[C@@H](NC(=O)[C@H](CCCCN)NC(=O)[C@H](CCCCN)NC(=O)[C@H](CC(N)=O)NC(=O)[C@H](CC(=O)O)NC(=O)[C@H](CCCNC(=N)N)NC(=O)[C@H](C)N)[C@@H](C)O)C(=O)N[C@@H](Cc1c[nH]c2ccccc12)C(=O)N1CCC[C@H]1C(=O)N[C@@H](CCCNC(=N)N)C(=O)N[C@@H](Cc1c[nH]cn1)C(=O)N[C@@H](CC(C)C)C(=O)N[C@@H](CCC(N)=O)C(=O)N[C@@H](CC(C)C)C(=O)N[C@@H](C)C(=O)N[C@H](C(=O)N[C@@H](CCCNC(=N)N)C(=O)N[C@@H](CC(N)=O)C(=O)N[C@@H](C)C(=O)N[C@H](C(=O)N[C@@H](CCCNC(=N)N)C(=O)N[C@@H](CO)C(=O)N[C@@H](CO)C(=O)N[C@@H](CCCNC(=N)N)C(=O)N[C@@H](C)C(=O)NCC(=O)N[C@@H](CC(C)C)C(=O)N[C@@H](CCC(N)=O)C(=O)N[C@@H](Cc1c[nH]c2ccccc12)C(=O)N1CCC[C@H]1C(=O)N[C@H](C(=O)NCC(=O)N[C@@H](CCCNC(=N)N)C(=O)N[C@H](C(=O)N[C@@H](Cc1c[nH]cn1)C(=O)N[C@@H](CCCNC(=N)N)C(=O)N[C@@H](CC(C)C)C(=O)N[C@@H](CC(C)C)C(=O)N[C@@H](CCCNC(=N)N)C(=O)N[C@@H](CCCCN)C(=O)O)C(C)C)C(C)C)[C@@H](C)O)C(C)C [DesHDAP1-A-BF2 (DAB)] | 1.1 (≈ 5.5 µg/mL) | 4.6 (≈ 23 µg/mL)
